Measured values from patent US5804576A, “Derivatives of 5-androsten-17-ones and 5-androstan-17-ones” (Research Corporation Technologies, Inc., priority 1986, dated 1998).
Several values for one entry are separate records, joined by “and”; a condition that tells them apart may be missing. Equal values may be shown once. Entries after “also recorded” stand apart in the source; their conditions may differ. Read-outs that look alike come from different tables or passages of the source.

How the values were obtained:
C57BL/KsJ-db/db mice = experiment: Anti-hyperglycemic activity (blood glucose); assay type: in vivo, mouse (C57BL/KsJ-db/db); conditions: for blood glucose lowering compared with DHEA (in words): compound 16 0.2% vs DHEA 0.4% of diet
Procedure: C57BL/KsJ-db/db 8 week old female mice were obtained and housed in polycarbonate cages in animal quarters maintained at 24° C. with 12 h of light and 12 h of darkness each day.
Mice were placed on a control chow or a chow diet containing either 0.4% DHEA or 0.2% of compound 16.
For determination of blood glucose levels, mice were bled from the orbital sinus using a heparinized capillary tube. 0.2 ml of blood was added to 1.8 ml of water to hemolyze the blood and glucose concentration was determined using the glucose oxidase assay.

rat uterus = experiment: Estrogenic and anti-estrogenic activity (uterine weight, s.c., CD rats); assay type: in vivo, rat (female CD); conditions: for Mean Uterine Weight ± S.D.: 3 days, DHEA vs 16 experiment; for estrogenic / anti-estrogenic effect, uterine weight (in words): s.c., 60 mg/kg or higher, female CD rats
Procedure: Female CD rats, 26-27 days old, were used. Rats were injected subcutaneously for 3 days with either DHEA or 16 in propylene glycol. Control rats received propylene glycol alone. The rats were killed on the 4th day and the uteri were removed and weighed.
Female CD rats, 26-27 days old, were injected subcutaneously for 3 days with one of the compounds of the present invention at 60 mg/kg in propylene glycol. Controls received propylene glycol alone. On the 4th day the rats were killed and the uteri were dissected out and weighed.

[1] = Anti-obesity test (body weight, food consumption); assay type: in vivo, mouse (male A/J); conditions: for mean weekly weight / mean weekly weight ± S.D.: n = 5; for mean weekly weight ± S.D.: 0.36% of diet; for weekly weight (Table 13): 0.54% in food
Method in brief: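 Male A/J mice, 5 weeks old on arrival, housed 5 per cage at 24 °C on a 12 h light/dark cycle, were given steroid in chow from one week after arrival; dietary concentrations were varied, or 0.54% or 0.36%. Body weight and food consumption (food added minus remaining) were recorded weekly.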

[2] = target: T1, purified bovine adrenal G6PDH (Bos taurus, UniProt F1MMK2); experiment: Inhibition of purified bovine adrenal G6PDH; assay type: biochemical; conditions: for inhibition at 0.1 µM: Conc. 0.1 μm; for inhibition at 0.1 µM / inhibition at 1 µM / inhibition at 10 µM: read-out: Percent Inhibition (G6PDH)
T1 construct: full-length, wild type, no tag
Method in brief: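 Inhibition of purified bovine adrenal G6PDH enzyme activity, run by the published Oertel and Rebelein (1969) procedure.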

[3] = system: seminal vesicles plus prostate glands; experiment: Androgenic and anti-androgenic activity (seminal vesicle plus prostate weight); assay type: in vivo, mouse (male A/J); conditions: for Mean Seminal Vesicle plus Prostate Weight ± S.D.: 4 weeks; for androgenic / anti-androgenic effect, seminal vesicle plus prostate weight (in words): diet, male A/J mice
Procedure: Male A/J mice (5 weeks old) were obtained from the Jackson Laboratory and were housed in polycarbonate cages (5 mice/cage) in animal quarters maintained at 24°±1° C. with 12 hours of light and 12 hours of darkness each day. One week after arrival, mice were placed on a chow diet containing either 0.18% or 0.09% 16 or without steroid. Mice were weighed weekly. After 4 weeks, the mice were killed, and the seminal vesicles plus prostate glands were dissected out and weighed.
(a) Male A/J mice (5 weeks old) were obtained from the Jackson Laboratory and were housed in polycarbonate cages (5 mice/cage) in animal quarters maintained at 24°[…] C. with 12 hours of light and 12 hours of darkness each day. One week after arrival, the mice were placed on a chow diet containing one of the test compounds of the present invention at 0.36%. After 4 weeks of treatment, the above mice were killed, and the seminal vesicles and prostate glands were dissected out and weighed.

T1 sequence (F1MMK2 31-70): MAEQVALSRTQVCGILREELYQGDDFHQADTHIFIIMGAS
T1 sequence (F1MMK2 101-575): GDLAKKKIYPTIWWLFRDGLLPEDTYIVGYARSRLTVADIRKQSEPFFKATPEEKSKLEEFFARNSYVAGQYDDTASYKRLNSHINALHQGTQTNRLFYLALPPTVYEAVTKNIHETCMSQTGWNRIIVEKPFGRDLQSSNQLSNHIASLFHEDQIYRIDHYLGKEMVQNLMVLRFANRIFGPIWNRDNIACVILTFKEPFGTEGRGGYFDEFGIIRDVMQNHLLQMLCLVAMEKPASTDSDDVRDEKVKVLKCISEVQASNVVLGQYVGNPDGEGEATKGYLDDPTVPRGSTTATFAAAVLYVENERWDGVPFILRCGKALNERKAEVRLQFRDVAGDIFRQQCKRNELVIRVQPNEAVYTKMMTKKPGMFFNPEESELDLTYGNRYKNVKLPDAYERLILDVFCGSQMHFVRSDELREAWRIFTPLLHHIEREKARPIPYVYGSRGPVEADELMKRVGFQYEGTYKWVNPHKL

## C[C@H]1CC[C@@]2(C)C(=CC[C@@H]3[C@@H]2CC[C@]2(C)C(=O)CC[C@@H]32)C1 [Compound 16, 3β-methyl-5-androsten-17-one]
C57BL/KsJ-db/db mice; 0.2% of diet, week 0, listed as Cpd 16
  Blood Glucose Levels: 216 ± 61 mg/deciliter
C57BL/KsJ-db/db mice; 0.2% of diet, week 0, listed as Cpd. 16
  Blood Glucose Levels: 244 ± 32 mg/deciliter
C57BL/KsJ-db/db mice; 0.2% of diet, week 1, listed as Cpd 16
  Blood Glucose Levels: 135 ± 15 mg/deciliter
C57BL/KsJ-db/db mice; 0.2% of diet, week 1, listed as Cpd. 16
  Blood Glucose Levels: 143 ± 21 mg/deciliter
C57BL/KsJ-db/db mice; 0.2% of diet, week 2, listed as Cpd 16
  Blood Glucose Levels: 118 ± 12 mg/deciliter
C57BL/KsJ-db/db mice; 0.2% of diet, week 2, listed as Cpd. 16
  Blood Glucose Levels: 134 ± 13 mg/deciliter
C57BL/KsJ-db/db mice; 0.2% of diet, week 3
  Blood Glucose Levels: 102 ± 8 mg/deciliter
C57BL/KsJ-db/db mice; 0.2% of diet, week 4
  Blood Glucose Levels: 105 ± 5 mg/deciliter
C57BL/KsJ-db/db mice; after 0.2% of diet, 24 hrs. on control diet
  Blood Glucose Levels: 147 ± 10 mg/deciliter
C57BL/KsJ-db/db mice; after 0.2% of diet, 48 hrs. on control diet
  Blood Glucose Levels: 262 ± 23 mg/deciliter
C57BL/KsJ-db/db mice
  blood glucose lowering compared with DHEA (in words): more effective in lowering blood glucose concentration
C57BL/KsJ-db/db mice; listed as compound 16
  blood glucose lowering compared with DHEA (in words): significantly more slowly in the mice that had received compound 16
Rat uterus; 60 mg/kg s.c.
  Mean Uterine Weight ± S.D.: 126 ± 87 mg/100 gm body weight
Rat uterus; 120 mg/kg s.c.
  Mean Uterine Weight ± S.D.: 111 ± 27 mg/100 gm body weight
Rat uterus; 60 mg/kg
  estrogenic / anti-estrogenic effect, uterine weight (in words): reduction in uterine weight; also recorded: apparently acts as an anti-estrogen
Rat uterus; listed as cmpd. 16, 60 mg/kg
  estrogenic / anti-estrogenic effect, uterine weight (in words): significantly greater than that of the cmpd. 21 treated rats; also recorded: highly significant anti-estrogenic activity
[1]
  Anti-obesity Activity relative to DHEA: more than 2 X
[1]; 0.18% of diet, week 0
  mean weekly weight: 22.6 ± 2.7 grams
[1]; 0.18% of diet, week 1
  mean weekly weight: 19.8 ± 2.3 grams
[1]; 0.18% of diet, week 2
  mean weekly weight: 19.4 ± 2.1 grams
[1]; 0.18% of diet, week 3
  mean weekly weight: 19.4 ± 2.1 grams
[1]; 0.18% of diet, week 4
  mean weekly weight: 19.6 ± 2.2 grams
[1]; 0.35% of diet, week 0
  mean weekly weight: 22.0 ± 2.5 grams
[1]; 0.35% of diet, week 1
  mean weekly weight: 16.8 ± 1.6 grams
[1]; 0.35% of diet, week 2
  mean weekly weight: 18.2 ± 0.8 grams
[1]; 0.35% of diet, week 3
  mean weekly weight: 17.2 ± 1.7 grams
[1]; 0.35% of diet, week 4
  mean weekly weight: 17.0 ± 1.2 grams
[1]; week 0
  mean weekly weight ± S.D.: 23.3 ± 2.5 grams
[1]; week 1
  mean weekly weight ± S.D.: 18 ± 1.5 grams
[1]; week 2
  mean weekly weight ± S.D.: 17.1 ± 1.6 grams
[2]
  inhibition at 0.1 µM: 25%
[2]; Conc. 1 μm
  inhibition at 1 µM: 40%
[2]; Conc. 10 μm
  inhibition at 10 µM: 53%
[3]; 0.09% of diet, n = 6
  Mean Seminal Vesicle plus Prostate Weight ± S.D.: 4.0 ± 0.7 mg/100 gm body weight
[3]; 0.18% of diet, n = 6
  Mean Seminal Vesicle plus Prostate Weight ± S.D.: 3.4 ± 0.11 mg/100 gm body weight
[3]; 0.36% of diet, n = 5
  Mean Seminal Vesicle plus Prostate Weight ± S.D.: 3.0 ± 0.3 mg/100 gm body weight
[3]
  androgenic / anti-androgenic effect, seminal vesicle plus prostate weight (in words): significantly reduced the weight of the seminal vesicles and prostate glands; also recorded: significantly reduced the seminal vesicle plus prostate gland weight
[3]; listed as Cmpd. 16
  androgenic / anti-androgenic effect, seminal vesicle plus prostate weight (in words): significantly reduced seminal vesicle plus prostate weight

## C[C@]12CC[C@H](O)CC1=CC[C@@H]1[C@@H]2CC[C@]2(C)C(=O)CC[C@@H]12 [DHEA, 3β-Hydroxy-5-androst-en-17-one, reference compound]
C57BL/KsJ-db/db mice; 0.4% of diet, week 0
  Blood Glucose Levels: 214 ± 59 mg/deciliter and 232 ± 28 mg/deciliter
C57BL/KsJ-db/db mice; 0.4% of diet, week 1
  Blood Glucose Levels: 161 ± 19 mg/deciliter and 132 ± 14 mg/deciliter
C57BL/KsJ-db/db mice; 0.4% of diet, week 2
  Blood Glucose Levels: 145 ± 19 mg/deciliter and 135 ± 37 mg/deciliter
C57BL/KsJ-db/db mice; 0.4% of diet, week 3
  Blood Glucose Levels: 117 ± 12 mg/deciliter
C57BL/KsJ-db/db mice; 0.4% of diet, week 4
  Blood Glucose Levels: 112 ± 4 mg/deciliter
C57BL/KsJ-db/db mice; Table 15, DHEA = 1×
  Anti-diabetic Activity relative to DHEA: 1 ×
C57BL/KsJ-db/db mice; after 0.4% of diet, 24 hrs. on control diet
  Blood Glucose Levels: 192 ± 32 mg/deciliter
C57BL/KsJ-db/db mice; after 0.4% of diet, 48 hrs. on control diet
  Blood Glucose Levels: 310 ± 37 mg/deciliter
Rat uterus; 60 mg/kg s.c.
  Mean Uterine Weight ± S.D.: 222 ± 77 mg/100 gm body weight
[1]; 0.18% of diet, week 0
  mean weekly weight: 22.4 ± 1.8 grams
[1]; 0.18% of diet, week 1
  mean weekly weight: 20.4 ± 1.9 grams
[1]; 0.18% of diet, week 2
  mean weekly weight: 21.1 ± 0.5 grams
[1]; 0.18% of diet, week 3
  mean weekly weight: 22.4 ± 0.8 grams
[1]; 0.18% of diet, week 4
  mean weekly weight: 23.6 ± 1.5 grams
[1]; 0.35% of diet, week 0
  mean weekly weight: 21.8 ± 2.2 grams and 22.4 ± 2.3 grams
[1]; 0.35% of diet, week 1
  mean weekly weight: 20.0 ± 2.3 grams and 16.0 ± 1.6 grams
[1]; 0.35% of diet, week 2
  mean weekly weight: 19.2 ± 1.8 grams and 20.2 ± 0.9 grams
[1]; 0.35% of diet, week 3
  mean weekly weight: 19.6 ± 2.8 grams and 21.0 ± 0.8 grams
[1]; 0.35% of diet, week 4
  mean weekly weight: 22.2 ± 2.4 grams and 22.2 ± 0.9 grams
[1]; 0.35% of diet, week 5
  mean weekly weight: 21.8 ± 2.2 grams
[1]; 0.35% of diet, week 7
  mean weekly weight: 23.2 ± 2.4 grams
[1]; week 0
  mean weekly weight ± S.D.: 23.2 ± 1.3 grams
  weekly weight (Table 13): 21.2 ± 1.4
[1]; week 1
  mean weekly weight ± S.D.: 21.8 ± 1.0 grams
  weekly weight (Table 13): 16.8 ± 1.6
[1]; week 2
  mean weekly weight ± S.D.: 20.8 ± 1.0 grams
  weekly weight (Table 13): 16.7 ± 2.0
[1]; 400 mg/kg repeated (DHEA), cancer preventive dosages (19, 20)
  anti-weight effect (in words): produces an anti-weight effect
[1]; week 3
  weekly weight (Table 13): 18.8 ± 1.1
[1]; week 4
  weekly weight (Table 13): 19.0 ± 2.0
[1]; week 5
  weekly weight (Table 13): 19.6 ± 2.8
[1]; 0.7% of diet, week 0
  mean weekly weight: 21.1 ± 2.8 grams and 22.0 ± 2.5 grams
[1]; 0.7% of diet, week 1
  mean weekly weight: 15.2 ± 1.8 grams and 17.0 ± 1.9 grams
[1]; 0.7% of diet, week 2
  mean weekly weight: 17.0 ± 2.0 grams and 17.8 ± 1.8 grams
[1]; 0.7% of diet, week 3
  mean weekly weight: 17.8 ± 1.1 grams and 18.4 ± 1.8 grams
[1]; 0.7% of diet, week 4
  mean weekly weight: 18.8 ± 1.1 grams and 19.2 ± 1.6 grams
[1]; 0.7% of diet, week 5
  mean weekly weight: 18.2 ± 1.3 grams and 20.2 ± 1.9 grams
[1]; 0.7% of diet, week 6
  mean weekly weight: 19.8 ± 2.0 grams
[1]; Table 14, DHEA = 1×
  Anti-obesity Activity relative to DHEA: 1 ×
[2]
  inhibition at 0.1 µM: 12%
[2]; Conc. 1 μm
  Percent Inhibition (G6PDH): 17%
  inhibition at 1 µM: 36%
[2]; Conc. 10 μm
  Percent Inhibition (G6PDH): 57%
  inhibition at 10 µM: 51%
[2]; Conc. 10 μm, listed as 1
  Percent Inhibition (G6PDH): 53%
[3]; 0.36% of diet, n = 5
  Mean Seminal Vesicle plus Prostate Weight ± S.D.: 6.5 ± 1.2 mg/100 gm body weight
[3]
  androgenic / anti-androgenic effect, seminal vesicle plus prostate weight (in words): significantly reduced seminal vesical plus prostate gland weight
